Source: patent US20260034135A1, “USE OF N6-BENZYLAMINOPURINE AS AN APPETITE SUPPRESSANT” (THE GOVERNING COUNCIL OF THE UNIVERSITY OF TORONTO, priority 2022, published 2026)

Columns and labels:
[1] = test system: mHypoE-46 cell line; test: RNA-sequencing (RNA-seq) of mHypoE-46 exposed to BAP; format: cell-based, mouse; conditions: 100 μM BAP
Procedure: To assess global mRNA gene expression changes, we exposed the mHypoE-46 line to 100 μM BAP for 4 and 16 h and assess mRNA expression via RNA-sequencing (RNA-seq). […] It is already known that a decrease in mTORC1 signaling results in a decrease in Npy through decreases in p70-S6K activity (18-20). […] Specifically, the gene expression of the upstream inhibitors of mTORC1, sestrin2 (Sesn2) (21) and tuberous sclerosis complex 2 (Tsc2) were both increased with BAP; whereas the gene expression of two downstream effectors inhibited by mTORC1, 4e-BP1 (Eif4ebp1) and ULK1 (Ulk1), were increased as well, indicating an overall negative regulation of mTORC1 activity (see FIG. 42A and 42B).

[2] = Intraperitoneal glucose tolerance test (GTT); format: in vivo, CD-1 mice; conditions: male CD-1, HFD, cohort BSF
Procedure: […] The mice were then briefly fasted to determine the response to insulin or glucose. For the intraperitoneal glucose tolerance test, male mice were transferred to new clean cages and fasted for 6 hours prior to GTT. After 5 hours of fasting, the mice were weighed to determine their proper glucose dosage. The appropriate amount of 20% glucose solution was aliquoted for each mouse (2 g/kg). After 6 hours of fasting, the mice had their blood glucose measured via tail vein using a glucometer. This was recorded as the blood glucose at 0-minute timepoint. The mice were then intraperitoneal injected with their aliquoted glucose solution and returned to their cage. Blood glucose was measured via the tail vein 15, 30, 60, 90, and 120 minutes after glucose injection. Upon completion of GTT, the mice were returned to their cages with food and water and were closely monitored to ensure proper recovery.

[3] = test system: B16 melanoma cells; conditions: protein kinase A-dependent manner; cited from earlier work
[4] = both 4 and 16 h, validated in mHypoE-46
[5] = daily oral BAP emulsion, 27 days

In the case of `c1ccc(CNc2ncnc3nc[nH]c23)cc1` [BAP, N6-benzylaminopurine], the “4e-BPI (Eif4ebp I), RNA-seq data 4 h” value ([1]; 4 h) is reported as “↑”, the “S6K (Rps6kbI), RNA-seq data 4 h” value ([1]; 4 h) is reported as “ns” and the “Sestrin2 (Sesn2), RNA-seq data 4 h” value ([1]; 4 h) is reported as “↑”. For the same molecule, the “TSC2 (Tsc2), RNA-seq data 4 h” value ([1]; 4 h) was “ns”, the “ULK I (Ulk I), RNA-seq data 4 h” value ([1]; 4 h) was “ns” and the “4e-BPI (Eif4ebp I), RNA-seq data 16 h” value ([1]; 16 h) was “↑”. The “S6K (Rps6kbI), RNA-seq data 16 h” value ([1]; 16 h) was “↓”, the “Sestrin2 (Sesn2), RNA-seq data 16 h” value ([1]; 16 h) was “↑” and the “TSC2 (Tsc2), RNA-seq data 16 h” value ([1]; 16 h) was “↑”. The “ULK I (Ulk I), RNA-seq data 16 h” value ([1]; 16 h) was “↑”, the “early growth response protein 1 (Egr1) gene expression” value [1, 4] was “highly downregulated” and the “early growth response protein 3 (Egr3) gene expression” value [1, 4] was “highly downregulated”. The c-fos gene expression ([1]; validated in mHypoE-46) was “significantly downregulated”, the c-jun gene expression ([1]; validated in mHypoE-46) was “significantly downregulated” and the “glucose uptake in a GTT” value ([2]; BAP emulsion 14 days) was “no change in glucose uptake”. The “fasting blood glucose vs HFD without BAP (GTT)” value [2, 5] was “significantly lower”, the “glucose response in GTT” value [2, 5] was “improved glucose response” and the melanogenesis [3] was “induce melanogenesis”.
